Measurements as given in ChEMBL document CHEMBL1123444, “Analgesic actions of 3-substituted 6-tert-butyl-1,2,3,4,5,6-hexahydro-2,6-methano-3-benzazocines” (1986).
Activity calls are given as the source filed them. The calls are words filed in the database; no cut-off is given here.

What was measured:
Mus musculus [1] = assay: Compound was evaluated for analgesic activity using mouse hotplate test at 7.1-13.8 mg/kg dose; type: functional
Mus musculus [2] = assay: Compound was evaluated for analgesic activity using mouse hotplate test, at the dose 20 mg/kg; Inactive; type: functional, organism-based; parameters: dose 20 mg/kg
Mus musculus [3] = species: Mus musculus; assay: Compound was evaluated for analgesic activity using mouse hotplate test; type: functional
Mus musculus [4] = assay: Compound was evaluated for analgesic activity using mouse hotplate test, at the dose 50 mg/kg; Inactive; type: functional, organism-based; parameters: dose 50 mg/kg

In the case of `CC(C)(C)C12CCN(CCc3ccccc3)C(Cc3ccccc31)C2` (stereo not given), the ED50 (Mus musculus [1]) is reported as 9.9 mg/kg.

`CC(C)(C)C12CCN(CC3CC3)C(Cc3ccccc31)C2` (stereo not given) was tested, and the ED50 (Mus musculus [2]) was “inactive”.

With `CN1CC[C@]23c4c5ccc(O)c4O[C@H]2[C@@H](O)C=C[C@H]3[C@H]1C5.CN1CC[C@]23c4c5ccc(O)c4O[C@H]2[C@@H](O)C=C[C@H]3[C@H]1C5.O=S(=O)(O)O` the ED50 (Mus musculus [3]) was 1.2 mg/kg.

`CN1CCC2(C(C)(C)C)CC1Cc1ccccc12` (stereo not given) was tested, and the ED50 (Mus musculus [3]) was 14.1 mg/kg.

With `C=CCN1CCC2(C(C)(C)C)CC1Cc1ccccc12` (stereo not given) the ED50 (Mus musculus [4]) was “inactive”.
